# Like-named read-outs stand apart in the source and are kept apart here.
compound,measurement,setting,value
Cc1cccc([C@H](C)c2cnc[nH]2)c1C [dexmedetomidine],EEG spectral dynamics / sleep state induced,"high-dose: about 0.9 to about 1.1 mcg/kg loading, about 0.80 to about 0.9 mcg/kg/hr maintenance, FIGS. 4A-4B",only slow-waves being induced
same,EEG spectral dynamics / sleep state induced,"low-dose: about 0.9 to about 1.1 mcg/kg loading, about 0.60 to about 0.7 mcg/kg/hr maintenance, FIGS. 3A-3B",spindles and slow-waves that can closely resemble stage N2 NREM sleep

# Reference: patent US20170274174A1, “SYSTEM AND METHOD FOR ADMINISTERING, MONITORING AND CONTROLLING BIOMIMETIC SLEEP” (THE GENERAL HOSPITAL CORPORATION, priority 2014, published 2017)
